Patent publication US20250206825A1, “COMPOSITION FOR PREVENTING OR TREATING MYOCARDITIS, COMPRISING VLA-4 INHIBITOR” (OSAKA UNIVERSITY, priority 2022, published 2025)

What was measured:
[1] = tested on: MRL-Pdcd1^−/− mice; assay: AJM300 mixed diet in myocarditis model (survival, echocardiography); assay type: in vivo, mouse
Experimental: […] MRL-Pdcd1^−/− mice were divided into two groups: AJM300 (−) group (n=13) not to be administered with the AJM300 and AJM300 (+) group (n=12) to be administered with the AJM300.
The AJM300 group (+) was administered with a mixed diet containing 1% of AJM300 from 2 weeks of age until death.
At 28 days of age, 9 mice in the AJM300 (−) group and 10 mice in the AJM300 (+) group were evaluated for the cardiac function by the echocardiography and then euthanized to collect heart and blood samples.

[2] = tested on: Vcam-1; assay: Induction of Vcam-1 by TNFα in cardiac fibroblasts (Western blotting); assay type: cell-based, rat; details: 12 hours and 24 hours after addition of TNFα versus 0 hour, TNFα 5 to 15 ng/ml
Experimental: (§1) For the cardiac fibroblasts, fibroblasts isolated after cell dispersion of a heart harvested from a neonatal rat with Collagenase type 2 (Worthington Biochemical Corporation, LS004176) were cultured in a 96-well plate. For splenic monocytes, a spleen was harvested from a wild-type mouse and homogenized, and then the monocyte fraction was collected by specific gravity separation using Optiprep (Serumwerk Bernburg, 1893). For the adhesion experiment, the cardiac fibroblasts were cultured in the 96-well plate for 48 hours, and then medium was replaced with TNFα+/− and cultured for another 24 hours. The splenic monocytes subjected to fluorescent staining (Hoechst 33342 (DOJINDO LABORATORIES, 341-07901) or Cytored (DOJINDO LABORATORIES, 342-08531)) were added and incubated at 37° C. for 30 min. After washing 6 times with PBS (−) to remove non-adherent monocytes, and then adherent monocytes were counted on In Cell Analyzer 6000 (GE Healthcare Life Sciences).
(§2) The TNFα (Peprotech, 300-01A) was added to the wells at a final concentration of 5 to 15 ng/ml.
Induction of the Vcam-1 by the TNFα was determined by Western blotting. Anti-Vcam1 antibody EPR5047 (Abcam, ab134047) was used as a primary antibody for the Western blotting. An HRP-conjugated anti-Rabbit antibody was used for detection, and Chemi-Lumi One L (Nacalai tesque, 07880-70) was used as a luminescence reagent. […]

[3] = tested on: cardiac fibroblasts and splenic monocytes; assay: Adhesion experiment of monocytes with cardiac fibroblasts in vitro (TNFα stimulation); assay type: cell-based, neonatal rat (fibroblasts), mouse (monocytes); details: stimulation with TNFα for 24 hours; monocytes incubated 30 min at 37° C.; In Cell Analyzer 6000
Experimental: as §1, §2

[4] = 1% AJM300 mixed diet, 28 days of age, versus AJM300 (−) group, t-test p=0.0231

Compound | heart rate (echocardiography) [1, 4] | left ventricular contractile performance: % Fractional Shortening [1, 4] | survival time (Kaplan-Meier) versus AJM300 (−) group ([1]; mixed diet containing 1% of AJM300 from 2 weeks of age until death, Log-rank test p=0.0022) | expression of the Vcam-1 (Western blotting) [2] | adhesion between the cardiac fibroblasts and the monocytes [3]
COC(=O)[C@H](Cc1ccc(-n2c(=O)c3cc(N(C)C)ccc3n(C)c2=O)cc1)NC(=O)c1c(Cl)cccc1Cl [AJM300, carotegrast methyl] | significantly ameliorated bradycardia | significantly improved left ventricular contractile performance | significantly prolonged | – | –
TNFα | – | – | – | increased more | strengthened
